Assay results published in patent publication US11110195B2, “Esculentin 1a derivatives and uses thereof” (University of Houston System, priority 2013, dated 2021).
Residues, ends and D or L forms follow the SMILES beside them.

What was measured:
P. aeruginosa ATCC 27853 = assay: Bactericidal activity in the presence of reflex human tears; assay type: cell-based, Pseudomonas aeruginosa; settings: 10 μM or 20 μM peptide, 50% or 70% reflex tears
Description: FIG. 3A: Bacterial cells were incubated with 10 μM or 20 μM peptide in the presence of 50% reflex tears induced by onion vapors and pooled from three consenting adult volunteers with a normal ocular surface. FIG. 3B: Bacteria were incubated with 20 μM peptide in the presence of 70% reflex tears. In both cases, aliquots were withdrawn for cell counting at different time intervals. Mean data, expressed as the percentage of bacteria killed by the peptide are shown.
2×10^6 CFU/ml P. aeruginosa (ATCC 27853) were incubated with 10μM or 20μM Esc-1a(1-21)NH2 in the presence of 50% (FIG. 3A) or 70% (FIG. 3B) human reflex tears and aliquots withdrawn, plated and counted after 30, 90 and 120 minutes (n=3).

[1] = tested on: Pseudomonas aeruginosa ATCC 19660; assay: Viable bacterial count in infected corneas; assay type: in vivo, C57BL/6 mice; settings: for difference in viable bacterial counts vs PBS control: pre-treated or treated groups; for viable bacterial count in cornea: pre-treated
Text: Corneas were harvested 1, 3 and 5 days after infection and the number of surviving bacteria determined. […] P1=post infection; Pre-trt=pretreatment with Esc-1a(1-21)NH2. *Indicates significant difference, p<0.05, among PBS control and peptide treated groups.
To determine a clinical score, neutrophil infiltration by myeloperoxidase assay (MPO assay) and viable bacterial cell counts in infected and control corneas of C57BL/6 mice with Pseudomonas aeruginosa ATCC 19660 keratitis following pre-treatment and post-infection treatment with Esc-1a(1-21)NH2 up to 5 days post-infection (PI) the following experiment was performed. In these experiments pre-treatment refers to a group of animals where treatment was initiated 24 hrs before infection then continued after infection.
To quantitate viable bacteria, a 100 μl aliquot from the corneal homogenates was serially diluted 1:10 in sterile PBS. Duplicate aliquots (20 μl) of each dilution, including the original homogenate, were plated onto nutrient agar. Plates were incubated for 14-16 h at 37° C.
The harvested corneas were homogenized, plated on growth media and the bacterial colonies recovered counted 14-18 hours post plating. Data plotted (FIG. 7) show the viable bacterial counts obtained from an average of 3 independent experiments.

HaCaT cells = assay: Wound healing assay, HaCaT cells; assay type: cell-based, human; settings: HaCaT monolayer
Description: The percentage of cell-covered area at each time point is reported on the y-axis. Control (Ctrl) represents cells not treated with the peptide. All data are the mean of at least three independent experiments ±SEM. […] The optimal concentration allowing gap closure was 0.25 μM.
The experimental procedure is similar to that described in Example 6 with the following two differences: (i) 40,000 cells suspended in DMEM supplemented with 4 mM glutamine and 10% FBS were seeded on each side of the ibidi culture inserts instead of 70,000 cells in KGM-2g as for corneal epithelial cells; (ii) serum-free medium was used in the wound healing assay instead of medium supplemented with 5% FBS as for corneal epithelial cells. […] Overall, the experiments indicate that Esc-1a(1-21)NH2 can stimulate wound closure in different types of mammalian cells but this is with a different kinetic or optimal concentration and thus a stereospecific mechanism involving a direct/indirect activation of different signalling transduction cascades (depending on the selected cell type) likely subtends such events.

[2] = tested on: TNF-α secretion from LPS-stimulated RAW264.7 macrophages; assay: Anti-endotoxin activity: TNF-α release from LPS-stimulated macrophages (ELISA); assay type: cell-based, murine; settings: LPS 10 ng/ml, 4 hours
Description: RAW264.7 cells were stimulated with LPS (10 ng/ml) derived from P. aeruginosa 10 in the presence of 1, 5, 10 and 20 μM Esc-1a(1-21)NH2 for 4 hours at 37° C. and 5% CO2. The percentage of inhibition of TNF-α release was normalized to that of macrophages stimulated with LPS without peptide (0% inhibition).
Macrophages (Raw 264.7) were cultured overnight in 96-well plates (1×10^5 cells/well) in DMEM supplemented with 2 mM L-glutamine, 1 mM sodium pyruvate, non-essential amino acids (NEAA), and 10% FBS. The medium was then removed and replaced with fresh medium containing LPS (10 ng/ml final concentration) and the peptide at different concentrations. Cells were incubated at 37° C. for 4 h, after which the medium was collected and TNF-α concentration in the samples was evaluated using a mouse TNF-α enzyme-linked immunosorbant assay kit according to the manufacturer's protocol (ELISA, Biosource). Cells that were stimulated with LPS alone, and untreated cells served as controls. All experiments were done in triplicate.

in vitro = settings: for Peptide Amount (%): 24 h, 37° C.; for remaining at 5 h, 0.575 mM / remaining at 24 h, 0.575 mM: human
Description: A total of 125 μl of a 0.92 mM solution of each peptide was incubated at 37° C. with 20 μl and 60 μl human serum. Samples were collected after 5 h and 24 h of incubation, precipitated with 200 μl methanol, and centrifuged for 2 min at 10,000 g.
The crude solution was then analyzed by high-performance liquid chromatography (HPLC) and mass spectrometry. HPLC was performed with a Vydac C18 column, and the crude solution was diluted 5 times with 0.1% trifluoroacetic acid before injection and monitored at 280 nm.

With `CC[C@H](C)[C@H](NC(=O)CN)C(=O)N[C@@H](Cc1ccccc1)C(=O)N[C@@H](CO)C(=O)N[C@@H](CCCCN)C(=O)N[C@@H](CC(C)C)C(=O)N[C@@H](C)C(=O)NCC(=O)N[C@@H](CCCCN)C(=O)N[C@@H](CCCCN)C(=O)N[C@H](C(=O)N[C@@H](CCCCN)C(=O)N[C@@H](CC(N)=O)C(=O)N[C@@H](CC(C)C)C(=O)N[C@@H](CC(C)C)C(=O)N[C@H](C(=O)N[C@@H](CO)C(=O)NCC(=O)N[C@@H](CC(C)C)C(=O)N[C@@H](CCCCN)C(=O)NCC(N)=O)[C@@H](C)CC)[C@@H](C)CC` [Esc-1a(1-21)NH2] (H-GIFSKLAGKKIKNLLISGLKG-NH2; N-terminus assumed) the “retention of activity in reflex tears” value (P. aeruginosa ATCC 27853) was “activity was retained”, the “difference in viable bacterial counts vs PBS control” value ([1]; day 5 PI) was 4 log10 and the “difference in viable bacterial counts vs PBS control” value ([1]; days 1 and 3 PI) was 2-3 log10 CFU. For the same compound, the “viable bacterial count in cornea” value ([1]; day 1 PI) was 3.35 log10 CFU, the “viable bacterial count in cornea” value ([1]; day 3 PI) was 3.7 log10 CFU and the “viable bacterial count in cornea” value ([1]; day 5 PI) was 3.47 log10 CFU. For the same compound, the “optimal concentration allowing gap closure” value (HaCaT cells) was 0.25 µM, the “time to coverage of the wound-field” value (HaCaT cells; bell-shaped dose-response) was 9 to 12 h and the “inhibition of TNF-α secretion” value ([2]; 10 μM peptide) was about 80%. The “inhibition of TNF-α secretion” value ([2]; 20 μM peptide) was about 90%, the “Peptide Amount (%)” value (in vitro; 10% human fresh serum) was “approximately 22.19%” and the “Peptide Amount (%)” value (in vitro; 30% human fresh serum) was about 11.5%. The remaining at 5 h, 0.575 mM (in vitro; 10% human fresh serum) was 44.4%, the remaining at 24 h, 0.575 mM (in vitro; 10% human fresh serum) was 22.2% and the remaining at 5 h, 0.575 mM (in vitro; 30% human fresh serum) was 20.9%. For the same compound, the remaining at 24 h, 0.575 mM (in vitro; 30% human fresh serum) was 11.5%.
